# Tested on: middle cerebral artery (MCA) occlusion
# Conditions: rat, 2 h MCA occlusion, 24 h reperfusion, 0.03 mg/kg iv bolus at 30 minutes
# Method: Six male Sprague Dawley rats (300 g) were anesthetized with haloethane and subjected to middle cerebral artery (MCA) occlusion using a nylon filament for 2 h. Subsequently, the filament was removed and reperfusion of the infarcted tissue occurred for 24 hours before the rat was sacrificed.
# Staining of coronal sections (2.0 mm×7-8) with triphenyltetrazolium chloride ([…]) taken throughout the brain were evaluated under blinded conditions using image analysis to determine infarct size.
# The infarct was also expressed as a percentage of the contralateral (non-infarcted) hemisphere to provide an indication of how much of the ipsilateral (infarcted) hemisphere was actually damaged by the procedure. Because edema is present in the infarcted hemisphere, it is often impossible to directly ascertain the percentage of the ipsilateral hemisphere that has been damaged.
# Rats were given iv bolus injections (1.0 mL/kg) of either vehicle (10% PEG 200/saline; n=3) or N-(2-pyrazine)carbonyl-L-phenylalanine-L-leucine boronic acid (0.03 mg/kg; n=3) at 30 minutes, 2 hours, and 6 hours after the start of the occlusion.
smiles,measurement,setting,value
CC(C)CC(NC(=O)C(Cc1ccccc1)NC(=O)c1cnccn1)B(O)O [N-(2-pyrazine)carbonyl-L-phenylalanine-L-leucine boronic acid],Infarct volume decreased on the ipsilateral hemisphere,"2 hours and 6 hours after start of occlusion, vs vehicle",62%
same,Total damage of the hemisphere (infarct as percentage of contralateral hemisphere),"2 hours and 6 hours, vehicle 19%",2%
